We go through one compound from patent publication US7981892B2, “Disubstituted phthalazine hedgehog pathway antagonists” (Eli Lilly and Company, priority 2008, dated 2011).

This test has as its system Gli1 transcript in Daoy cells stimulated with Shh conditioned media. Put plainly: Functional assay for measuring the inhibition of Gli1 in Daoy cells (bDNA assay of Gli1 transcript after Shh-conditioned media stimulation). The format is cell-based. The settings on record: Homo sapiens; Daoy cells treated with Shh-CM, 24 hours incubation with compound, Gli1 transcript by bDNA luminescence. How it is done: Biological activity is determined using a functional assay in Daoy neuronal cancer cells and measures levels of Gli1 ribonucleic, acid via a bDNA. (branched deoxyribonucleic acid) assay system (Panomies, Inc., Fremont, Calif.), Gli was originally discovered in a Glioblastoma cell line and encodes a zinc finger protein that is activated by Shh signaling. The maximum response is obtained by inducing Gli1 transcription in the Daoy cells with conditioned medium (HEK-293 cells stably expressing recombinant Shb) for 24 hours and. then measuring the amount of stimulated Gli1 transcript. […]
The bDNA assay system utilizes the technology of branched-chain DNA to allow amplification of a target ribonucleic acid (transcript). […] The addition of a chemilumigenic substrate during the amplification step allows for detection using luminescence, […]
Daoy cells are grown to conflunency in tissue culture T225-flasks in Daoy growth media containing Minimum Essential Medium (MEM) plus 10% Fetal Bovine Serum (FBS) with […] non-essential amino acids and 1 mM sodium pyruvate. The cells are removed from the T225-flasks using trypsin ethylenediaminetetraacetic acid (EDTA), centrifuged, resuspended in media, and then counted. […]

Where a name gives a salt, the structure may show the parent alone.

A word on the IC50: it is the point on the concentration scale where inhibition reaches its midpoint. With `CN(C(=O)c1c(F)cccc1C(F)(F)F)C1CCN(c2nnc(-c3ccccc3)c3ccccc23)CC1` [Example 36, 2-Fluoro-N-methyl-N-(1-(4-phenylphthalazin-1-yl)piperidin-4-yl)-6-(trifluoromethyl)benzamide hydrochloride], the IC50 is roughly 2.37 nM.
